Measured values taken from paper PMC8151276, “An Integrated Approach toward NanoBRET Tracers for Analysis of GPCR Ligand Engagement” (Molecules, 2021).

Experiments:
CCR6 = target: T1, CCR6 (Homo sapiens, UniProt P51684); experiment: NanoBRET screen HiBiT-CCR6 in HEK293; format: binding; settings: CCR6
T1 construct: purchased Promega (in-house HiBiT-GPCR construct library, NanoBRET)
T1 sequence (P51684 1-374): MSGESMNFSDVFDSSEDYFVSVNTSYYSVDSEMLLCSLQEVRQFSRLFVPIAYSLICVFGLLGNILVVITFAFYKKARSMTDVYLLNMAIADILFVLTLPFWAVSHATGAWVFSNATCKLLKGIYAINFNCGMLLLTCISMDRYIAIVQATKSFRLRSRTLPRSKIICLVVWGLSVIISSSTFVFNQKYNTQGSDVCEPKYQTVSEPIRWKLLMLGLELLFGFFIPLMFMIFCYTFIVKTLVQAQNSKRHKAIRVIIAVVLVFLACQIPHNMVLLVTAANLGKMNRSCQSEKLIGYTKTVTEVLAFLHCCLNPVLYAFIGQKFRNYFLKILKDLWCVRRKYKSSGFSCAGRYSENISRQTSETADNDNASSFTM
Procedure: (§1) Each tracer candidate was screened across the entire library of HiBiT-GPCR constructs using NanoBRET as the detection modality. As depicted in Figure 4A, the specificity of interactions was evaluated through decrease in BRET due to competitive displacement of a bound tracer by excess parental compound. Each tracer was analyzed for binding to each HiBiT-GPCR fusion in the absence and in the presence of competing parental compound. Briefly, HEK293 cells were transfected with HiBiT-GPCR constructs diluted into promoterless DNA to reduce expression and maximize translocation to the cell surface. Each tracer candidate was then screened at concentrations of 1 μM and 0.1 μM across cells expressing these fusions. Cells were treated for 1.5 h with tracer either alone or in the presence of 20 μM competing parental compound (i.e., control). BRET was measured upon addition of purified LgBiT and subsequent complementation with HiBiT genetically fused to a GPCR. The specificity of interactions was assessed through a decrease in BRET signal due to competitive displacement of the bound tracer. To further gauge the robustness of these interactions, the fold response over the control (i.e., BRETtracer/BRETcontrol) was calculated. We chose a 1.5-fold response, which translates to ≥7-fold signal over noise as the minimal threshold required to score an interaction as positive. […]. Below we highlight the screening results obtained for our exemplary fluorescent tracers based on Clozapine, Amitriptyline and AZD1283.
(§2) HiBiT-GPCR DNA constructs were diluted in 10 mM Tris pH 8 to a final concentration of 0.01 μg/μL, arrayed in 96-well plates and stored at −20 °C. For transfection, HEK293 cells were suspended in Opti-MEM (without phenol red) supplemented with 2% fetal bovine serum (Seradigm) and 100 units/mL penicillin–streptomycin (Gibco) at a final concentration of 220,000 cells/mL and dispensed into white 96-well plates at 90 μL/well. Subsequent transfections and screens were carried using an Agilent Bravo Automated Liquid Handling Platform. First, the 96-well HiBiT DNA arrays were diluted 25-fold in Opti-MEM (without serum or phenol red) to a final concentration of 0.0004 μg/μL and 20 μL of the diluted DNAs were transferred into new 96-well plates. Next, promoterless carrier DNA (1 μg/μL) was diluted 25-fold (0.04 μg/μL) and then dispensed into the diluted arrays at 20 μL/well. Following brief mixing, Viafect transfection reagent (Promega) diluted 16-fold into Opti-MEM was dispensed into the plates at 40 μL/well. After mixing by pipetting, plates were incubated for 10 min on the pipetting station deck. The DNA-transfection reagent complexes were then added to plates containing cells. To facilitate the screen, 10 μL of DNA-transfection reagent complexes were added in duplicates to the top 4 and bottom 4 rows, resulting in two identical 48-well arrays per plate. Plates with transfected cells were incubated for 18–20 h at 37 °C/5% CO2. A screen of each tracer across the entire library using two different concentrations requires duplicate plates of transfected cells. Depending on the number of tracers being screened, transfections can be scaled up using the same ratios. The next day, for each tracer, four 20× screening solutions in tracer dilution buffer (Promega) were prepared: two duplicates at final concentration of 20 μM and two duplicates at a final concentration of 2 μM. A competing unmodified compound was added to one of each duplicate at a final concentration of 400 μM. The four resulting solutions were diluted 4-fold in Opti-MEM without serum or phenol red to generate 5× solutions (5 µM and 0.5 µM tracer +/− 100 μM competing compound). To screen the library, a BioTek MultiFlo FX liquid dispenser was used to dispense 22.5 µL of tracer solution to the top 4 rows and 22.5 µL tracer + competing compound solution to the 4 bottom rows. Plates were briefly mixed on an orbital shaker and incubated for 1.5 h at room temperature. […]

PTGDR2 = target: T2, PTGDR2 (Homo sapiens, UniProt Q9Y5Y4); experiment: NanoBRET screen HiBiT-PTGDR2 in HEK293; format: binding; settings: PTGDR2
T2 construct: purchased Promega (in-house HiBiT-GPCR construct library, NanoBRET)
T2 sequence (Q9Y5Y4 1-395): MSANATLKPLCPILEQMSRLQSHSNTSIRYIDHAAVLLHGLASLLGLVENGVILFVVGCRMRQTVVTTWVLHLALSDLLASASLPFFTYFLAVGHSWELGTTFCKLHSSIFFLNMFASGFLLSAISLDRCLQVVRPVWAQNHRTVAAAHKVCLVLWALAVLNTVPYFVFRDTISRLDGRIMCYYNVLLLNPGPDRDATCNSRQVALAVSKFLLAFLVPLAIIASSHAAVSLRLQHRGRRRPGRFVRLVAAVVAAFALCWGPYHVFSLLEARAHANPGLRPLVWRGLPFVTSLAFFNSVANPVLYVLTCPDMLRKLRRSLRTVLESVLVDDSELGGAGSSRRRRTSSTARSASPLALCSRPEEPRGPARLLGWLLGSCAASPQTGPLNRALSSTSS
Procedure: as §1, §2

| SMILES | NanoBRET Fold Response (CCR6; tracer 0.1μM) | NanoBRET Fold Response (CCR6; tracer 1μM) | NanoBRET Fold Response (PTGDR2; tracer 0.1μM) | NanoBRET Fold Response (PTGDR2; tracer 1μM) | other results |
| --- | --- | --- | --- | --- | --- |
| CN1CCN(C2=Nc3cc(Cl)ccc3N(CC(=O)NCCOCCOCCOCCOCCNC(=O)CCc3ccc4n3[B-](F)(F)[N+]3=C(c5ccc[nH]5)C=CC3=C4)c3ccccc32)CC1 [Clozapine-c-2-NB590] |  |  |  |  | NanoBRET Fold Response (CCR6; 0.1μM tracer): 0.99; NanoBRET Fold Response (CCR6; 1μM tracer): 0.91; NanoBRET Fold Response (PTGDR2; 0.1μM tracer): 0.96; NanoBRET Fold Response (PTGDR2; 1μM tracer): 1.02 |
| O=C(CCOCCOCCOCCOCCNC(=O)CCc1ccc2n1[B-](F)(F)[N+]1=C(c3ccc[nH]3)C=CC1=C2)NCCCN1CCN(C2=Nc3ccccc3Oc3ccc(Cl)cc32)CC1 [Loxapine-a-2-NB590] | 1.00 | 0.97 | 1.06 | 1.04 |  |
| COc1ccccc1N1CCN(CCCCN2C(=O)c3ccc(CNC(=O)CCOCCOCCOCCOCCNC(=O)CCc4ccc5n4[B-](F)(F)[N+]4=C(c6ccc[nH]6)C=CC4=C5)cc3C2=O)CC1 [NAN-190-2-NB590] | 0.99 | 1.02 |  | 1.02 |  |
| COc1ccccc1N1CCN(CCCCN2C(=O)c3ccc(CNC(=O)CCOCCNC(=O)c4ccc(CNC(=O)CCc5ccc6n5[B-](F)(F)[N+]5=C(c7ccc[nH]7)C=CC5=C6)cc4)cc3C2=O)CC1 [NAN-190-3-NB590] | 1.19 | 0.93 | 0.87 | 0.85 |  |
| O=C(CCc1ccc2n1[B-](F)(F)[N+]1=C(c3ccc[nH]3)C=CC1=C2)NCc1ccc(C(=O)NCCOCCC(=O)N[C@@H]2CC[C@@]3(O)[C@H]4Cc5ccc(O)c6c5[C@@]3(CCN4CC3CC3)[C@H]2O6)cc1 [Naltrexone-3-NB590] | 0.94 | 1.24 | 0.98 | 1.00 |  |
| Cc1cc2c(s1)Nc1ccccc1N=C2N1CCN(CCCNC(=O)CCOCCOCCOCCOCCNC(=O)CCc2ccc3n2[B-](F)(F)[N+]2=C(c4ccc[nH]4)C=CC2=C3)CC1 [Olanzapine-a-2-NB590] | 1.00 | 1.21 | 0.97 | 0.96 |  |
| O=C(CCc1ccc2n1[B-](F)(F)[N+]1=C(c3ccc[nH]3)C=CC1=C2)NCc1ccc(C(=O)NCCOCCOCCNCC(O)COc2cccc3ccccc23)cc1 (centres unmarked) [Propranolol-3-NB590] |  |  |  |  | NanoBRET Fold Response (CCR6; 0.1μM): 0.95; NanoBRET Fold Response (CCR6; 1μM): 1.02; NanoBRET Fold Response (PTGDR2; 0.1μM): 0.96; NanoBRET Fold Response (PTGDR2; 1μM): 1.06 |
| O=C(CCc1ccc2n1[B-](F)(F)[N+]1=C(c3ccc[nH]3)C=CC1=C2)NCCOCCOCCNC(=O)OCCOCCN1CCN(C2=Nc3ccccc3Sc3ccccc32)CC1 [Quetiapine-a-2-NB590] | 1.05 | 0.95 | 0.96 | 1.05 |  |
| Cc1nc2n(c(=O)c1CCN1CCC(c3noc4cc(F)ccc34)CC1)CCCC2OC(=O)NCCOCCOCCOCCOCCNC(=O)CCc1ccc2n1[B-](F)(F)[N+]1=C(c3ccc[nH]3)C=CC1=C2 (centres unmarked) [Risperidone-2-NB590] | 1.07 | 0.91 | 0.99 | 0.96 |  |
